Source: PubChem BioAssay (NCI)
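Results reflect a 48-hour exposure of cells in 96-well plates to compound at five concentrations. GI50 is the concentration that inhibits growth by half. TGI marks complete inhibition of growth.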

What was measured:
Assay in all cases: DTP human tumour cell line panel, 48 h
[1] = system: SW-620 colon
[2] = system: CAKI-1 renal
[3] = system: U251 CNS
[4] = system: BT-549 breast
[5] = system: MDA-MB-435
[6] = system: OVCAR-3 ovarian
[7] = system: SK-OV-3 ovarian
[8] = system: HCC-2998 colon
[9] = system: SNB-75 CNS
[10] = system: CCRF-CEM leukemia
[11] = system: HOP-62 NSCLC
[12] = system: T-47D breast
[13] = system: SNB-19 CNS
[14] = system: SF-268 CNS
[15] = system: IGROV1 ovarian
[16] = system: K-562 leukemia
[17] = system: HOP-92 NSCLC
[18] = system: UACC-62 melanoma
[19] = system: NCI-H522 lung
[20] = system: SF-295 CNS
[21] = system: MCF7 breast
[22] = system: LOX IMVI melanoma
[23] = system: A549 NSCLC
[24] = system: RXF 393 renal
[25] = system: A498 renal
[26] = system: MDA-MB-231 breast
[27] = system: MOLT-4 leukemia
[28] = system: 786-0 renal
[29] = system: NCI/ADR-RES ovarian
[30] = system: TK-10 renal
[31] = system: SK-MEL-28 melanoma
[32] = system: NCI-H23 lung
[33] = system: MDA-N
[34] = system: DU-145 prostate
[35] = system: UO-31 renal
[36] = system: RPMI-8226 leukemia
[37] = system: HS 578T breast
[38] = system: HCT-116 colon
[39] = system: EKVX NSCLC
[40] = system: M14 melanoma
[41] = system: OVCAR-8 ovarian
[42] = system: HCT-15 colon
[43] = system: ACHN renal
[44] = system: OVCAR-5 ovarian
[45] = system: SR leukemia
[46] = system: KM12 colon
[47] = system: SN12C renal
[48] = system: HL-60(TB) leukemia
[49] = system: MALME-3M melanoma
[50] = system: OVCAR-4 ovarian
[51] = system: HT29 colon
[52] = system: PC-3 prostate
[53] = system: UACC-257 melanoma
[54] = system: NCI-H460 lung
[55] = system: SF-539 CNS
[56] = system: NCI-H226 lung
[57] = system: COLO 205 colon
[58] = system: SK-MEL-2 melanoma
[59] = system: SK-MEL-5 melanoma

SMILES: Cc1cn2c(/C=C3/C(=O)Nc4cccc(Cl)c43)c(Cl)nc2s1
- TGI [1]: > 100000 nM
- TGI [2]: > 100000 nM
- TGI [3]: 27300 nM
- TGI [4]: > 100000 nM
- TGI [5]: > 100000 nM
- TGI [6]: > 100000 nM
- TGI [7]: > 100000 nM
- TGI [8]: 76500 nM
- TGI [9]: 43600 nM
- TGI [10]: 28000 nM
- TGI [11]: 39100 nM
- TGI [12]: > 100000 nM
- TGI [13]: > 100000 nM
- TGI [14]: > 100000 nM
- TGI [15]: > 100000 nM
- TGI [16]: > 100000 nM
- TGI [17]: > 100000 nM
- TGI [18]: > 100000 nM
- TGI [19]: > 100000 nM
- TGI [20]: > 100000 nM
- TGI [21]: > 100000 nM
- TGI [22]: > 100000 nM
- TGI [23]: > 100000 nM
- TGI [24]: 87000 nM
- TGI [25]: > 100000 nM
- TGI [26]: > 100000 nM
- TGI [27]: > 100000 nM
- TGI [28]: > 100000 nM
- TGI [29]: > 100000 nM
- TGI [30]: 37400 nM
- TGI [31]: 36500 nM
- TGI [32]: > 100000 nM
- TGI [33]: > 100000 nM
- TGI [34]: > 100000 nM
- TGI [35]: > 100000 nM
- TGI [36]: > 100000 nM
- TGI [37]: 42500 nM
- TGI [38]: > 100000 nM
- TGI [39]: > 100000 nM
- TGI [40]: > 100000 nM
- TGI [41]: > 100000 nM
- TGI [42]: > 100000 nM
- TGI [43]: > 100000 nM
- TGI [44]: > 100000 nM
- TGI [45]: > 100000 nM
- TGI [46]: > 100000 nM
- TGI [47]: > 100000 nM
- TGI [48]: > 100000 nM
- TGI [49]: > 100000 nM
- TGI [50]: > 100000 nM
- TGI [51]: > 100000 nM
- TGI [52]: > 100000 nM
- TGI [53]: > 100000 nM

SMILES: COc1ccc2nc3cc([N+](=O)[O-])ccc3c(NCCCCCN(C)C)c2c1
- GI50 [1]: 272 nM
- TGI [1]: 3000 nM
- GI50 [2]: 306 nM
- TGI [2]: 3040 nM
- GI50 [3]: 218 nM
- TGI [3]: 2640 nM
- GI50 [54]: 81.5 nM
- TGI [54]: 1030 nM
- GI50 [4]: 1770 nM
- TGI [4]: 3550 nM
- GI50 [5]: 271 nM
- TGI [5]: 972 nM
- GI50 [6]: 1410 nM
- TGI [6]: 12100 nM
- GI50 [7]: 351 nM
- TGI [7]: 2360 nM
- GI50 [9]: 247 nM
- TGI [9]: 1100 nM
- GI50 [10]: 295 nM
- TGI [10]: 3090 nM
- GI50 [11]: 53.6 nM
- TGI [11]: 301 nM
- GI50 [12]: 307 nM
- TGI [12]: 1730 nM
- GI50 [13]: 301 nM
- TGI [13]: 1230 nM
- GI50 [14]: 285 nM
- TGI [14]: 2260 nM
- GI50 [15]: 370 nM
- TGI [15]: 2530 nM
- GI50 [16]: 25.5 nM
- TGI [16]: 353 nM
- GI50 [55]: 319 nM
- TGI [55]: 1660 nM
- GI50 [17]: 148 nM
- TGI [17]: 490 nM
- GI50 [56]: 309 nM
- TGI [56]: 1680 nM
- GI50 [18]: 231 nM
- TGI [18]: 740 nM
- GI50 [19]: 30 nM
- TGI [19]: 90.7 nM
- GI50 [20]: 353 nM
- TGI [20]: 2520 nM
- GI50 [21]: 51.4 nM
- TGI [21]: 1040 nM
- GI50 [22]: 279 nM
- TGI [22]: 1100 nM
- GI50 [23]: 250 nM
- TGI [23]: 1150 nM
- GI50 [25]: 1070 nM
- TGI [25]: 2980 nM
- GI50 [26]: 249 nM
- TGI [26]: 1930 nM
- GI50 [27]: 105 nM
- TGI [27]: 1040 nM
- GI50 [28]: 150 nM
- TGI [28]: 1070 nM
- GI50 [29]: 2130 nM
- TGI [29]: 13500 nM
- GI50 [31]: 283 nM
- TGI [31]: 1180 nM
- GI50 [32]: 250 nM
- TGI [32]: 1540 nM
- GI50 [33]: 438 nM
- TGI [33]: 1570 nM
- GI50 [34]: 286 nM
- TGI [34]: 11300 nM
- GI50 [35]: 819 nM
- TGI [35]: 3630 nM
- GI50 [36]: 74.1 nM
- TGI [36]: 1250 nM
- GI50 [37]: 376 nM
- TGI [37]: 4660 nM
- GI50 [38]: 45.3 nM
- TGI [38]: 1180 nM
- GI50 [39]: 1590 nM
- TGI [39]: 7270 nM
- GI50 [40]: 216 nM
- TGI [40]: 522 nM
- GI50 [41]: 214 nM
- TGI [41]: 1320 nM
- GI50 [42]: 1310 nM
- GI50 [43]: 592 nM
- TGI [43]: 7490 nM
- GI50 [44]: 497 nM
- TGI [44]: 3920 nM
- GI50 [45]: 159 nM
- TGI [45]: 14100 nM
- GI50 [46]: 207 nM
- TGI [46]: 618 nM
- GI50 [57]: 241 nM
- TGI [57]: 1680 nM
- GI50 [47]: 179 nM
- TGI [47]: 631 nM
- GI50 [48]: 140 nM
- TGI [48]: 2520 nM
- GI50 [49]: 233 nM
- TGI [49]: 1030 nM
- GI50 [58]: 20.8 nM
- TGI [58]: 214 nM
- GI50 [50]: 140 nM
- TGI [50]: 546 nM
- GI50 [51]: 64.3 nM
- TGI [51]: 380 nM
- TGI [52]: 1750 nM
- GI50 [59]: 159 nM
- TGI [59]: 390 nM
- GI50 [53]: 1030 nM
- TGI [53]: 2660 nM
